Laboratory results from ChEMBL document CHEMBL1141437, “Lipoperoxidation and cyclooxygenase enzyme inhibitory piperidine alkaloids from Cassia spectabilis green fruits” (J Nat Prod, 2007).

Legend:
[1] = DPPH radical scavenging activity assessed as absorption change at 60 ppm by spectrophotometry; format: functional
[2] = Inhibition of AAPH-induced lipid peroxidation; format: functional; conditions: dose or concentration not given here
[3] = molecular target: T1, Prostaglandin G/H synthase 1 (Ovis aries) (UniProt P05979); assay: Inhibition of ram seminal vesicle COX1 at 100 ppm; format: tissue-based
T1 sequence (whole entry): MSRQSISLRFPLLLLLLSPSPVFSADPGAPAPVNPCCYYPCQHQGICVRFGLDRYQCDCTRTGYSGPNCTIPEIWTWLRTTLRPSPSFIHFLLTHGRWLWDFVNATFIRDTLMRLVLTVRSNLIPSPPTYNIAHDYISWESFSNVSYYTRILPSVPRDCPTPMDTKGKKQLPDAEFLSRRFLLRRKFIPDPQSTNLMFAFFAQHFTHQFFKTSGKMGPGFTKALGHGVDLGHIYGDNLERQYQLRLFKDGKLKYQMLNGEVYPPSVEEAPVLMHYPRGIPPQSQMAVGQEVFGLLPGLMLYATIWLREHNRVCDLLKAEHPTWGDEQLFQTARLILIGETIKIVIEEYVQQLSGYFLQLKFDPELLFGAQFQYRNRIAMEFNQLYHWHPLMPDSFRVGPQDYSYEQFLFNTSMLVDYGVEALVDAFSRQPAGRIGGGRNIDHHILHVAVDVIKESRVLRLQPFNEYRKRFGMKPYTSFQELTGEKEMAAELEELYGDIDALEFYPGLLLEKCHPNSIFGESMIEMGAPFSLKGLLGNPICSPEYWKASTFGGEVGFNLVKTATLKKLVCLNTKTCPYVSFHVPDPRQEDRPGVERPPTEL

[4] = Inhibition of lipid peroxidation at 100 ppm after 21 mins; format: functional

Row | SMILES | deltaA [1] [%] | inhibition [2] [%] | inhibition [3] [%] | inhibition [4] [%]
1 | C[C@@H]1O[C@@H](OC[C@H]2O[C@@H](Oc3c(-c4ccc(O)c(O)c4)oc4cc(O)cc(O)c4c3=O)[C@H](O)[C@@H](O)[C@@H]2O)[C@H](O)[C@H](O)[C@H]1O | 92 | – | – | –
2 | COc1cc(/C=C/C(=O)O[C@@H]2CC[C@H](CCCCCCCCCCC(C)=O)N[C@@H]2C)ccc1O | 40 | 50 | 33 | –
3 | CC(=O)CCCCCCCCCCCC[C@H]1CC[C@@H](O)[C@@H](C)N1 | < 10 | 50 | 40 | 75
4 | CC(=O)CCCCCCCCCCCC[C@H]1CC[C@@H](OC(C)=O)[C@@H](C)N1 | < 10 | 50 | 58 | 75
